From patent publication US6387241B1, “Method of sterilization using ozone” (priority 1993, dated 2002)
Read-outs that look alike come from different tables or passages of the source.

Tested on: spores of Bacillus stearothermophilus and Bacillus subtilis var. niger (Duo-Spore paper spore strips)

## O=[O+][O-] [ozone]
"flow through" mode, about 2 liters per minute, 10-12 wt% ozone
  ozone exposure time to achieve overkill (100% of the spore strips sterilized): 60 min
"pressure" mode, generator output 10-12 wt% ozone
  ozone exposure time to achieve overkill (100% of the spore strips sterilized): 45 min
"single fill" mode, static 10 wt% ozone
  ozone exposure time to achieve overkill (100% of the spore strips sterilized): 90 min
